Results on seven compounds are retold here after patent publication US20140336159A1, “METHODS FOR TREATING AND DIAGNOSING RESPIRATORY TRACT INFECTIONS” (PULMATRIX, INC., priority 2011, published 2014).

Experiment [1] concerns LPS stimulated peritoneal macrophages. The experiment can be described thus: Cytokine secretion by LPS stimulated peritoneal macrophages. The settings on record: mouse macrophages, 10 ng/ml LPS, 2 hours, salts 0-50 mM. The class given is cell-based, mouse (C57BL/6). An excerpt: Macrophages represent a key component of the innate immune system. Alveolar macrophages are thought to play a central role in disease pathogenesis by secreting pro-inflammatory cytokines and chemokines in the context of both chronic obstructive pulmonary disease (COPD) and cystic fibrosis (CF), two respiratory illnesses involving airway inflammation. It was hypothesized that given the prominent role of alveolar macrophages in LPS induced lung inflammation, it may be possible that Ca^2+-ion containing formulations directly influence the inflammatory response of the macrophage after LPS exposure. In order to test this hypothesis in-vitro, murine peritoneal macrophages were isolated. C57BL/6 female mice were anesthetized using isofluorane inhalant. […] To confirm macrophage phenotype, a cytospin preparation was performed. Cells were cultured in DMEM:F12 overnight. The following day the media was removed and the macrophages were exposed to media supplemented with varying concentrations of LPS (1 ng/ml to 1 microgram/ml), a dose range of supplemental calcium chloride (5 mM to 50 mM) as well as a dose range of calcium chloride in the presence of LPS for 2 hours. After 2 hours in culture the media was collected for analysis of inflammatory cytokines using LUMINEX® Multiplex immunoassays (Invitrogen/Life Technologies, Grand Island, N.Y.) and BIO-PLEX MANAGER™ software (Version 6) (Bio-Rad, Hercules, Calif.). Presto blue or trypan blue assays were used to determine cell viability. […] The media content for 3 representative inflammatory mediators (IL-6, KC and TNF-alpha) cultured under LPS free conditions (unstimulated) as well as cells exposed to 1 ng/ml LPS were analyzed.
(§1) To determine the effects of alternating the cation in the calcium chloride salt, LPS stimulated human or mouse macrophages were exposed to alternative divalent and monovalent cations, magnesium chloride and sodium chloride, as well as an alternative […] anion, calcium lactate. Normal human monocytes were differentiated into macrophage derived monocytes in culture for 7 days as described in Example 16, and perotineal derived mouse macrophages were described in Example 15. Following two hours of incubation with LPS (10 ng/ml) and the appropriate salt concentration, supernatants were collected for LUMINEX protein analysis of inflammatory cytokines.

A further experiment deals with human macrophages. The experiment can be described thus: Cytokine secretion by LPS stimulated human monocyte-derived macrophages (normal and COPD-derived). Type of experiment: cell-based. Conditions: human macrophages, 10 ng/ml LPS, 2 hours, salts 0-50 mM. On the procedure:
Normal and COPD-derived human monocytes were differentiated into macrophage derived monocytes in culture for 7 days. Cells were thawed following storage in liquid nitrogen, and then plated at 2.0-2.5×10^5 cells/well (in 0.2 ml per well) in IMDM cell culture media containing 10% human serum and human GM-CSF (50 ng/ml). On day 7, assays were performed on the cells, using media containing serum but no GM-CSF. Cells were stimulated with 10 ng/ml LPS, and exposed to calcium chloride concentrations of either 10 or 25 mM. Following two hours, supernatants were collected for LUMINEX analysis of IL-8, IL-6, TNF alpha and MIP-1 alpha (FIG. 17A), IL-8 only for COPD (FIG. 17B). […] Calcium chloride reduced LPS induced inflammation in normal and COPD-derived human monocyte-derived macrophages.
as §1

The next experiment has as its system Influenza A/WSN/33/1. The class given is cell-based.
The subject of the next experiment is neutrophils in the BAL. The experiment can be described thus: Ozone exposure mouse model. Conditions: 100 microgram/kg intranasal. The class given is in vivo, mouse (BALB/cJ). On the procedure:
Female wild-type (BALB/cJ) were obtained from The Jackson Laboratory (Bar Harbor. ME) at six weeks of age. Mice were treated with dry powder formulations Leucine (98% leucine, 2% sodium chloride) and Formulation II (75% calcium lactate, 20% leucine, 5% sodium chloride) in a temperature and humidity controlled room (30±5% RH and 20±2° C.) or administered liquid treatments of a p38 MAP kinase inhibitor (100 microgram/kg, Tocris SB203580), and USP-Grade Saline (0.9% NaCl), Cardinal Health via the intranasal route. Naïve mice were not exposed to dry powder treatment. One hour following the end of treatment, conscious mice were placed in a custom plastic exposure chamber (26 cm×16 cm×12 cm, Braintree Scientific) on a heated pad at 37° C. Ozone was generated via corona discharge using OZ-2AD Ozone Generator (Ozone Solutions, Hull, Iowa) and diluted with 2.0 LPM (liter per minute) of USP breathing air (MedTech, Medford, Mass.) to a concentration of 3 ppm. The concentration inside the exposure chamber was sampled continuously at 1.0 LPM using UV-106L Ozone Analyzer (Ozone Solutions, Hull, Iowa). Mice were exposed to ozone for 1 hour. Control mice were placed in static cages and exposed to ambient air for a duration matched to each ozone exposure. Mice were euthanized 4 hours following the end of the ozone or air exposure using a fatal dose of pentobarbital. BAL and cell counts were performed. […]

Experiment [2] deals with LPS stimulated peritoneal macrophages (TRPV channels). The experiment can be described thus: Cytokine secretion by LPS stimulated macrophages treated with TRPV channel antagonists. The class given is cell-based, mouse. An excerpt:
The transient receptor potential V (TRPV) family of ion channels is sensitive to osmotic changes and has an intimate relationship with levels of intracellular calcium. […] In order to determine the influence of TRPV channels Ruthenium red, a potent, broad acting TRPV channel antagonist was used. […] The results can be seen in FIG. 20A. […] Following two hours, supernatants were collected for LUMINEX analysis of inflammatory cytokines. […] However, while treatment with SKF96365 did have an effect on LPS stimulated macrophages, it was not as pronounced as that of treatment with ruthenium red.

Structures are written as SMILES.

Regarding `[Cl-].[Na+]` [sodium chloride, reference compound], in experiment [1], the “LPS induced inflammatory mediator secretion (KC, IL-6)” value is reported as “little influence”. The “LPS induced cytokine production (IL-8, IL-6)” value with human macrophages is “little influence”.
Regarding `CC(=O)N[C@H]1[C@H]([C@H](O)[C@H](O)CO)OC(C(=O)O)=C[C@@H]1N=C(N)N` [Zanamivir, zanamivir], the “viral infection / Influenza titer versus untreated (Air) control” value in the experiment with Influenza A/WSN/33/1 was “reduced viral infection in a dose responsive manner”.
`CC(O)C(=O)[O-].CC(O)C(=O)[O-].[Ca+2]` (centres unmarked) [calcium lactate]: the “LPS induced inflammatory mediator secretion (KC, IL-6)” value in experiment [1] is “more profound effect”. Besides, the “LPS induced cytokine production (IL-8, IL-6)” value in the experiment on human macrophages is “most profound effect”.
Turning to `C[S+]([O-])c1ccc(-c2nc(-c3ccncc3)c(-c3ccc(F)cc3)[nH]2)cc1` (centres unmarked) [p38 MAP kinase inhibitor], in the experiment on neutrophils in the BAL, the “pulmonary total cell response to ozone exposure” value was “significantly inhibited”.
For the compound `[Cl-].[Cl-].[Mg+2]` [magnesium chloride], in experiment [1], the “LPS induced inflammatory mediator secretion (KC, IL-6)” value was “some activity”. Further, the “LPS induced cytokine production (IL-8, IL-6)” value with human macrophages was “of lesser magnitude than calcium lactate but more potent than sodium chloride”.
Consider `N.N.N.N.N.N.N.N.N.N.N.N.N.N.[Cl-].[Cl-].[Cl-].[Cl-].[Cl-].[Cl-].[O-2].[O-2].[Ru+3].[Ru+3].[Ru+4]` [ruthenium red], for which the “decrease in KC concentration” value in experiment [2] (in the presence of 10 mM calcium chloride, 1 ng/ml LPS) is recorded as “further enhanced”; in experiment [2] (ruthenium red alone (1, 5, 10, 20 micromolar), 1 ng/ml LPS, 2 hours) it was “more than 50%”.
For `COc1ccc(CCCOC(Cn2ccnc2)c2ccc(OC)cc2)cc1` (centres unmarked) [SKF 96365], the “KC and IL-6 concentrations” value in experiment [2] (5, 20, 50 micromolar, 10 ng/ml LPS, 2 hours) is on record as “dose dependent decrease”. The TNF alpha concentration entry in experiment [2] (20 and 50 micromolar, 10 ng/ml LPS) was “reduced at the highest two doses”. Besides, in experiment [2] (50 micromolar, 10 ng/ml LPS), the “decrease in KC concentration” value is 51%. Also, the “KC and TNF alpha reduction” value in experiment [2] (along with 10 mM calcium chloride, compared to calcium chloride alone) was “small increase”.
